Measured values published in patent publication US20180051221A1, “UNLEADED GASOLINE FORMULATIONS FOR PISTON ENGINES” (Swift Fuels, LLC, priority 2014, published 2018).
Where two headings read alike, the source gives them in different places.

How the values were obtained:
[1] = Octane enhancement by aromatic amines blended into aviation gasoline (compared to baseline avgas); details: for Octane @ 6%*: amine at 6% in aviation gasoline; for Octane @ 9%*: amine at 9% in aviation gasoline
[2] = Solubility / physical state remarks on aromatic amines as avgas components; format: physicochemical; details: remark on solubility above 6% or solid state at RT; b32 calls these solubility problems
[3] = system: rat; details: cited from earlier work
[4] = within 10 days; cited from earlier work
[5] = cited from earlier work; for OSHA Hazards: public MSDS / OSHA data
[6] = occupational exposure limit, estimated; cited from earlier work
[7] = oral, MSDS data from Sigma-Aldrich, et al.

In the case of `Nc1cc(F)c(F)c(F)c1F` [2,3,4,5-tetrafluorophenylamine], the “Octane @ 6%*” value [1] is reported as 1.70, the “Octane @ 9%*” value [1] is reported as 2.50 and the Other [2] is reported as “solid@RT”.

For `Nc1ccccc1Cl` [2-chlorophenylamine], the “Octane @ 6%*” value [1] was 4.50 and the “Octane @ 9%*” value [1] was 5.60.

With `Cc1ccc(N)c(F)c1` [2-fluoro-4-metylphenylamine] the “Octane @ 6%*” value [1] was 4.00 and the “Octane @ 9%*” value [1] was 5.10.

With `Cc1ccc(F)c(N)c1` [2-fluoro-5-metylphenylamine] the “Octane @ 6%*” value [1] was 3.60 and the “Octane @ 9%*” value [1] was 5.10.

With `Nc1ccccc1F` [2-fluorophenylamine] the “Octane @ 6%*” value [1] was 4.20 and the “Octane @ 9%*” value [1] was 7.30.

For `Cc1ccccc1N` [2-methylphenylamine], the “Octane @ 6%*” value [1] was 1.70 and the “Octane @ 9%*” value [1] was 2.10.

In the case of `Cc1ccc(N)cc1C` [3,4-dimethylphenylamine], the “Octane @ 6%*” value [1] is reported as 5.60.

With `Cc1cc(C)cc(N)c1` [3,5-dimethylphenylamine] the “Octane @ 6%*” value [1] was 5.70 and the “Octane @ 9%*” value [1] was 8.70.

With `Nc1cccc(Cl)c1` [3-chlorophenylamine] the “Octane @ 6%*” value [1] was 3.60.

For `CCc1cccc(N)c1` [3-ethylphenylamine], the “Octane @ 6%*” value [1] was 3.80 and the “Octane @ 9%*” value [1] was 6.60.

With `Cc1c(N)cccc1F` [3-fluoro-2-metylphenylamine] the “Octane @ 6%*” value [1] was 1.30 and the “Octane @ 9%*” value [1] was 2.70.

With `Nc1cccc(F)c1` [3-fluorophenylamine] the “Octane @ 6%*” value [1] was 4.20 and the “Octane @ 9%*” value [1] was 6.70.

For `Cc1cccc(N)c1` [3-methylphenylamine], the “Octane @ 6%*” value [1] is given as 5.40, the “Octane @ 9%*” value [1] is given as 7.40 and the “LD50 (rat, oral)” value ([3]; in vivo, po) is given as 450 mg/kg.

With `CCc1ccc(N)cc1` [4-ethylphenylamine] the “Octane @ 6%*” value [1] was 3.80 and the “Octane @ 9%*” value [1] was 6.30.

In the case of `Cc1cc(F)ccc1N` [4-fluoro-2-metylphenylamine], the “Octane @ 6%*” value [1] is reported as 1.60 and the “Octane @ 9%*” value [1] is reported as 2.10.

For `Nc1ccc(F)cc1` [4-fluorophenylamine], the “Octane @ 6%*” value [1] was 4.20 and the “Octane @ 9%*” value [1] was 7.50.

For `Cc1ccc(N)cc1` [4-methylphenylamine], the “Octane @ 6%*” value [1] was 6.10.

With `CC(C)(C)c1ccc(N)cc1` [4-t-butylphenylamine] the “Octane @ 6%*” value [1] was 4.20 and the “Octane @ 9%*” value [1] was 6.60.

With `Cc1ccc(F)cc1N` [5-fluoro-2-metylphenylamine] the “Octane @ 6%*” value [1] was 1.60 and the “Octane @ 9%*” value [1] was 2.10.

For `c1ccccc1` [Benzene], the “LD50 (rat, oral)” value ([3]; in vivo, po) is listed as 2,990 mg/kg.

For `CC(C)c1ccc(N)cc1` [Cumidine, 4-isopropylaniline], the biodegradable [4] is listed as 88%, the “Octane @ 6%*” value [1] is listed as 4.40 and the “Octane @ 9%*” value [1] is listed as 7.20. For the same compound, the “classification as mutagen or carcinogen” value ([5]; MSDS No. 818472, EMD Millipore) was “not classified as a mutagen or carcinogen”, the “LD50 (rat, oral)” value ([3]; oral, MSDS No. 818472, EMD Millipore) was 757 mg/kg and the “LD50 (rat, oral)” value [3, 7] was 757 mg/kg. The TWA [6] was about 2 ppm.

In the case of `CCOC(C)(C)C` [ETBE, ethyl tert-butyl ether], the “OSHA Hazards” value [5] is listed as “Irritant” and the “LD50 (rat, oral)” value [3, 7] is listed as 5,000 mg/kg.

For `Cc1cc(C)cc(C)c1` [Mesitylene], the “LD50 (rat, oral)” value [3, 7] is given as 5,000 mg/kg.

For `CCNc1ccccc1` [N-ethylphenylamine], the “Octane @ 6%*” value [1] was −2.50.

For `CNc1ccc(F)cc1` [N-methyl-4-fluorophenylamine], the “Octane @ 6%*” value [1] was 2.50 and the “Octane @ 9%*” value [1] was 2.60.

With `CNc1ccccc1` [N-methylphenylamine] the “Octane @ 6%*” value [1] was 2.10 and the “Octane @ 9%*” value [1] was 2.60.

For `C[CH2][Pb]([CH2]C)([CH2]C)[CH2]C` [TEL, Tetraethyl lead], the “LD50 (rat, oral)” value [3, 7] is listed as 14 mg/kg.

In the case of `Cc1ccccc1` [Toluene], the “LD50 (rat, oral)” value [3, 7] is given as 5,000 mg/kg.

For `Nc1ccccc1` [phenylamine], the “Octane @ 6%*” value [1] is listed as 5.70, the “Octane @ 9%*” value [1] is listed as 8.70 and the “OSHA Hazards” value ([5]; listed as aniline) is listed as “irritant”. For the same compound, the “LD50 (rat, oral)” value ([3]; in vivo, po) was 250 mg/kg.
